Reference: patent publication US20260091078A1, “OLIGOPEPTIDE THAT INHIBITS ANGIOGENESIS AND VASCULAR FUNCTION” (UNIVERSIDAD NACIONAL AUTONOMA DE MEXICO, priority 2019, published 2026)

How the values were obtained:
[1] = test system: immortalized bovine umbilical-vein endothelial cells (BUVEC E6E7); test: Proliferation of BUVEC E6E7 endothelial cells stimulated with VEGF (EdU click assay); type: cell-based; conditions: 100 nM, VEGF 50 ng ml^-1
Protocol: (§1) On a 96-well plate treated for cell culture, BUVEC E6E7 and HUVEC cells were seeded at a density of ˜14,000 and ˜11,000 cells cm^−2, respectively. BUVEC E6E7 cells were maintained in F12K culture media with 10% (v/v) fetal bovine serum (FBS) and the HUVEC in F12K media supplemented with 20% of FBS, 100 μg ml^−1 heparin and 25 μg ml^−1 of endothelial cell growth supplement (ECGS). After 24 hours, the cells were starved with FBS-reduced media (0.1% of FBS for BUVEC E6E7 and 0.5% for HUVEC) for 16 hours to synchronize cells in phase GO of the reproductive cycle. After this time, FBS and heparin were replenished only to HUVEC. The cells were then treated with vasoinhibin or the oligopeptide THGRGFI in concentrations ranging from 0.001 to 100 nM for 24 hours in the presence of 10 μM of the thymidine analog 5-Ethynyl-2′-deoxyuridine (EdU) and 50 ng ml^−1 VEGF for the BUVEC E6E7 or the combination of 25 ng ml^−1 VEGF and 20 ng ml^−1 bFGF for HUVEC. At the end of the experiment, cells were fixed with 4% paraformaldehyde, permeabilized with 0.5% Triton X-100 in TBS1x, and stained to detect the newly synthetized DNA by the incorporation of EdU using the “click” assay (which involves a copper catalyzed reaction to covalently bind fluorescent azide to the EDU incorporated to DNA). Total DNA was counterstained with Hoechst 33342 and the “click”-stained nuclei were quantified and plotted relative to the total number of Hoechst 33342-stained nuclei.
For the assay, BUVEC E6E7 cells were seeded at a density of ˜14′000 cells cm^−2 in a 96 well plate with F12K with 10% (v/v) FBS. After 24 hours, cells were starved with 0.1% of FBS for GO synchronization for ˜16 hours. Next, the cells were treated with the different oligopeptides in presence of 10 μM of the thymidine analog EdU and 50 ng ml^−1 of VEGF. Finally, the cells were fixed, permeabilized, and stained for the newly synthetized DNA by the EdU incorporation through the ‘click’ assay. The total DNA was stained with Hoechst 33342 and the percentage of ‘click’-stained nuclei over the total nuclei was a measure of proliferation.

[2] = test system: human umbilical-vein endothelial cells (HUVEC); test: Proliferation of HUVEC stimulated with VEGF and bFGF (EdU click assay); type: cell-based; conditions: for dose-response effect (biological potency) on proliferation of HUVEC: different doses, 24 hours, VEGF 25 ng ml^-1 and bFGF 20 ng ml^-1
Protocol: as §1
HUVEC were seeded on a 96 well plate at a density of ˜11,000 cells cm^−2 and maintained in F12K supplemented with 20% of FBS, 100 μg ml^−1 heparin and 25 μg ml^−1 endothelial cell growth supplement (ECGS). After 24 hours, the cells were synchronized in GO with starving conditions (FBS 0.5%) for 16 hours, and after that FBS and the heparin were replenished. Cells were then treated with THGRGFI, the different oligopeptides and 123 amino acids vasoinhibin, each in a concentration of 100 nM, for 24 hours in presence or absence of 10 μM of thymidine analog 5-Ethynyl-2′-deoxyuridine (EdU) and a combination of 25 ng ml^−1 VEGF and 20 ng ml^−1 bFGF. Finally, the cells were fixed with 4% paraformaldehyde, permeabilized with 0.5% of Triton X-100 in TBS1x and stained for the newly synthetized DNA with the ‘click’ method that detects the EdU incorporation. Total DNA was stained with Hoechst 33342 and the percentage of ‘click’-stained nuclei relative to total nuclei (Hoechst 33342-stained) indicated cell proliferation.
Approximately 11,000 HUVEC cells cm^−2 were seeded on a 96 well plate in F12K media with 20% FBS, 100 μg ml^−1 heparin and 25 μg ml^−1 ECGS. After 24 hours, cells were starved with 0.5% of FBS for ˜16 hours, and after that time the FBS and heparin were added again and cells treated with different doses of the alanine substituted oligopeptides for 24 hours, in the presence of EdU and a combination of 25 ng ml^−1 VEGF and 20 ng ml^−1 bFGF. Finally, the cells were fixed, permeabilized and stained to quantify the synthesis of DNA as a sign of proliferation.

## GFITKAI (Amino acids 49 to 55 of human prolactin; listed as Homo sapiens)
[1]
  effect on VEGF-induced proliferation of BUVEC E6E7 at single concentration: did not shown any activity

## GRGFITK (Amino acids 47 to 53 of human prolactin; listed as Homo sapiens)
[1]
  effect on VEGF-induced proliferation of BUVEC E6E7 at single concentration: significatively inhibited the VEGF-induced proliferation of endothelial cells

## His Gly Arg [HGR]
[2]
  dose-response effect (biological potency) on proliferation of HUVEC: very similar to the oligopeptide THGRGFI

## R4A: THGRGFI with the arginine at position X4 substituted by alanine (THGAGFI)
[2]
  dose-response effect (biological potency) on proliferation of HUVEC: did not inhibit endothelial proliferation

## THIRGGF (scrambled sequence of SEQ ID NO 1) [Scr2, reference compound]
[2]; 100 nM, VEGF 25 ng ml^-1 and bFGF 20 ng ml^-1, 24 hours
  effect on proliferation of HUVEC at single concentration: did not have any effect

## TKAINSC (Amino acids 52 to 58 of human prolactin; listed as Homo sapiens)
[1]
  effect on VEGF-induced proliferation of BUVEC E6E7 at single concentration: did not shown any activity

## Thr His Gly Arg (THGR; Amino acids 45 to 48 of human prolactin; listed as Homo sapiens)
[2]
  dose-response effect (biological potency) on proliferation of HUVEC: very similar to the oligopeptide THGRGFI
